Reference: the supplement of paper PMC10307832

How the values were obtained:
Test in all cases: relative viability (nuclei count vs DMSO), 5 days (fraction); higher = more cells survive
[1] = compound: C1/C(=C\C2=CC=CS2)/C(=O)/C(=C/C3=CC=CS3)/C1 + Cc1cc(Nc2cc(N3CCN(C)CC3)nc(Sc3ccc(NC(=O)C4CC4)cc3)n2)n[nH]1 [Tozasertib] (partner 0.1 µM)
Method in brief: (§1)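 Dosing by pin tool came one day after lung cancer cell lines were seeded in 1536-well plates, using either one drug or a fixed anchor-drug dose plus five library-drug doses (not always all listed) in √10 steps. After 5 days, nuclei were counted on 4× images. Relative viability is treated-well nuclei count divided by vehicle-well nuclei count, and values are medians of duplicate plates.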

TPCA-1 + Foretinib = compound: C1=CC(=CC=C1C2=CC(=C(S2)NC(=O)N)C(=O)N)F [TPCA-1] + COc1cc2c(Oc3ccc(NC(=O)C4(C(=O)Nc5ccc(F)cc5)CC4)cc3F)ccnc2cc1OCCCN1CCOCC1 [Foretinib] (partner 0.25 µM)
Method in brief: as §1

TPCA-1 + OSI-027 = compound: C1=CC(=CC=C1C2=CC(=C(S2)NC(=O)N)C(=O)N)F [TPCA-1] + COc1cccc2cc(-c3nc([C@H]4CC[C@H](C(=O)O)CC4)n4ncnc(N)c34)[nH]c12 [OSI-027] (partner 0.5 µM)
Method in brief: as §1

TPCA-1 + Pemetrexed = compound: C1=CC(=CC=C1C2=CC(=C(S2)NC(=O)N)C(=O)N)F [TPCA-1] + Nc1nc2[nH]cc(CCc3ccc(C(=O)N[C@@H](CCC(=O)O)C(=O)O)cc3)c2c(=O)[nH]1 [Pemetrexed] (partner 0.2 µM)
Method in brief: as §1

UMC-11
relative viability ([1]; first compound 0.2 µM): 0.204
relative viability ([1]; first compound 0.6325 µM): 0.192
relative viability ([1]; first compound 2 µM): 0.212
relative viability ([1]; first compound 6.325 µM): 0.202
relative viability ([1]; first compound 20 µM): 0.205
relative viability (TPCA-1 + Foretinib; first compound 0.04 µM): 1.16
relative viability (TPCA-1 + Foretinib; first compound 0.1265 µM): 1.02
relative viability (TPCA-1 + Foretinib; first compound 0.4 µM): 1.04
relative viability (TPCA-1 + Foretinib; first compound 1.265 µM): 0.925
relative viability (TPCA-1 + Foretinib; first compound 4 µM): 0.387
relative viability (TPCA-1 + OSI-027; first compound 0.04 µM): 0.536
relative viability (TPCA-1 + OSI-027; first compound 0.1265 µM): 0.337
relative viability (TPCA-1 + OSI-027; first compound 0.4 µM): 0.466
relative viability (TPCA-1 + OSI-027; first compound 1.265 µM): 0.4
relative viability (TPCA-1 + OSI-027; first compound 4 µM): 0.234
relative viability (TPCA-1 + Pemetrexed; first compound 0.04 µM): 0.809
relative viability (TPCA-1 + Pemetrexed; first compound 0.1265 µM): 0.763
relative viability (TPCA-1 + Pemetrexed; first compound 0.4 µM): 0.843
relative viability (TPCA-1 + Pemetrexed; first compound 1.265 µM): 0.776
relative viability (TPCA-1 + Pemetrexed; first compound 4 µM): 0.799
